# Results as given in patent publication US10589078B2, “Metallic microneedles” (MICRODERMICS INC., priority 2013, dated 2020).
# Format: in vitro ADME
# Details: pig, 3 min, 174 μM
# Experimental: A 500 μm tall prototype nickel microneedle 120 fabricated using the method depicted in FIGS. 1A-1G was used to inject a fluorescent chemotherapeutic drug (doxorubicin) into pigskin. A backing plate of the microneedle was bonded to a drug container that was connected to a conventional syringe via a flexible plastic capillary tube. The syringe was filled with a 174 μM solution of doxorubicin in water. The syringe was placed in a commercial syringe pump system (from KD Scientific™ of Holliston, Mass.). The microneedle 120 was applied to a shaved pigskin sample. The pump was set to push the plunger to generate a constant flow rate of 0.2 μL/minute for 3 minutes. This flow rate was selected based on a study investigating the efficiency of transdermal drug injection using silicon microneedles (U. O. Häfeli, et al., (2009), Biomed. Microdevices, Vol. 11, pp. 943-950) which found an average delivery rate of 0.2 μL/minute through each needle in an injection trial. After the injection, the skin was cleaned and then scanned using confocal microscopy.
smiles,measurement,value
COc1cccc2c1C(=O)c1c(O)c3c(c(O)c1C2=O)C[C@@](O)(C(=O)CO)C[C@@H]3O[C@H]1C[C@H](N)[C@H](O)[C@H](C)O1 [doxorubicin],depth of penetration of doxorubicin into the skin,approximately 130 μm
